Assay results reported in PubChem BioAssay (NCI).
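48-hour exposure; five concentrations; linearly interpolated endpoints. Here, GI50 denotes the concentration required for 50% inhibition of growth. TGI is the concentration that stops growth completely.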

Key:
Assay in all cases: growth of human tumour cells (NCI), 48 h
[1] = test system: RXF 393 renal
[2] = test system: ACHN renal
[3] = test system: SN12C renal
[4] = test system: OVCAR-3 ovarian
[5] = test system: EKVX NSCLC
[6] = test system: A549 NSCLC
[7] = test system: SNB-19 CNS
[8] = test system: U251 CNS
[9] = test system: TK-10 renal
[10] = test system: SK-MEL-5 melanoma
[11] = test system: MDA-MB-435
[12] = test system: SF-268 CNS
[13] = test system: NCI/ADR-RES ovarian
[14] = test system: SK-MEL-2 melanoma
[15] = test system: CCRF-CEM leukemia
[16] = test system: SK-MEL-28 melanoma
[17] = test system: HCT-15 colon
[18] = test system: UACC-62 melanoma
[19] = test system: NCI-H522 lung
[20] = test system: BT-549 breast
[21] = test system: UACC-257 melanoma
[22] = test system: HL-60(TB) leukemia
[23] = test system: OVCAR-5 ovarian
[24] = test system: LOX IMVI melanoma
[25] = test system: SK-OV-3 ovarian
[26] = test system: SR leukemia
[27] = test system: HOP-62 NSCLC
[28] = test system: T-47D breast
[29] = test system: MDA-MB-231 breast
[30] = test system: PC-3 prostate
[31] = test system: HOP-92 NSCLC
[32] = test system: 786-0 renal
[33] = test system: OVCAR-8 ovarian
[34] = test system: DU-145 prostate
[35] = test system: MALME-3M melanoma
[36] = test system: SNB-75 CNS
[37] = test system: IGROV1 ovarian
[38] = test system: HT29 colon
[39] = test system: A498 renal
[40] = test system: MOLT-4 leukemia
[41] = test system: SW-620 colon
[42] = test system: HCC-2998 colon
[43] = test system: M14 melanoma
[44] = test system: SF-539 CNS
[45] = test system: SF-295 CNS
[46] = test system: NCI-H226 lung
[47] = test system: HCT-116 colon
[48] = test system: K-562 leukemia
[49] = test system: COLO 205 colon
[50] = test system: CAKI-1 renal
[51] = test system: RPMI-8226 leukemia
[52] = test system: HS 578T breast
[53] = test system: NCI-H460 lung
[54] = test system: KM12 colon
[55] = test system: OVCAR-4 ovarian
[56] = test system: MCF7 breast
[57] = test system: UO-31 renal

Compound: COc1cc2cc(Oc3ccc(NC(=O)c4cccc(C(F)(F)F)c4)cc3)c(C)nc2cc1OCCN1CCCCC1
- GI50 [1]: 13.2 µM
- TGI [1]: 26.6 µM
- GI50 [2]: 21.5 µM
- TGI [2]: 49.2 µM
- GI50 [3]: 17.6 µM
- TGI [3]: 34.4 µM
- GI50 [4]: 22.3 µM
- TGI [4]: 47.6 µM
- GI50 [5]: 31.6 µM
- TGI [5]: > 100 µM
- GI50 [6]: 27.5 µM
- TGI [6]: > 100 µM
- GI50 [7]: 34.8 µM
- TGI [7]: > 100 µM
- GI50 [8]: 17.8 µM
- TGI [8]: 34 µM
- GI50 [9]: > 100 µM
- TGI [9]: > 100 µM
- GI50 [10]: 17.1 µM
- TGI [10]: 30.9 µM
- GI50 [11]: 16.7 µM
- TGI [11]: 31.4 µM
- GI50 [12]: 20.4 µM
- TGI [12]: 43.4 µM
- GI50 [13]: 33.9 µM
- TGI [13]: > 100 µM
- GI50 [14]: > 100 µM
- TGI [14]: > 100 µM
- GI50 [15]: 29.8 µM
- TGI [15]: > 100 µM
- GI50 [16]: 17.1 µM
- TGI [16]: 31.4 µM
- GI50 [17]: 16 µM
- TGI [17]: 30.9 µM
- GI50 [18]: 18.8 µM
- TGI [18]: 36.1 µM
- GI50 [19]: 16 µM
- TGI [19]: 31.3 µM
- GI50 [20]: > 100 µM
- TGI [20]: > 100 µM
- GI50 [21]: 17.2 µM
- TGI [21]: 32.2 µM
- GI50 [22]: 19.6 µM
- TGI [22]: 42.4 µM
- GI50 [23]: 41.4 µM
- TGI [23]: > 100 µM
- GI50 [24]: 17.8 µM
- TGI [24]: 32.5 µM
- GI50 [25]: > 100 µM
- TGI [25]: > 100 µM
- GI50 [26]: 18.2 µM
- TGI [26]: 46.1 µM
- GI50 [27]: 33.6 µM
- TGI [27]: > 100 µM
- GI50 [28]: 18.1 µM
- TGI [28]: 46.1 µM
- GI50 [29]: 18.4 µM
- TGI [29]: 36.9 µM
- GI50 [30]: 19 µM
- TGI [30]: 42 µM
- GI50 [31]: 21.7 µM
- TGI [31]: > 100 µM
- GI50 [32]: 16.5 µM
- TGI [32]: 32.8 µM
- GI50 [33]: 18.2 µM
- TGI [33]: 36.7 µM
- GI50 [34]: 41.6 µM
- TGI [34]: > 100 µM
- GI50 [35]: 18.3 µM
- TGI [35]: 34 µM
- GI50 [36]: 15 µM
- TGI [36]: 29.9 µM
- GI50 [37]: 38.4 µM
- TGI [37]: > 100 µM
- GI50 [38]: 18 µM
- TGI [38]: 37.1 µM
- GI50 [39]: > 100 µM
- TGI [39]: > 100 µM
- GI50 [40]: 20.9 µM
- TGI [40]: 58.5 µM
- GI50 [41]: 21.3 µM
- TGI [41]: 42.8 µM
- GI50 [42]: 18.2 µM
- TGI [42]: 34.6 µM
- GI50 [43]: 17.9 µM
- TGI [43]: 35.1 µM
- GI50 [44]: 16.9 µM
- TGI [44]: 30.9 µM
- GI50 [45]: 18.3 µM
- TGI [45]: 34 µM
- GI50 [46]: > 100 µM
- TGI [46]: > 100 µM
- GI50 [47]: 20.6 µM
- TGI [47]: 48.9 µM
- GI50 [48]: 19.3 µM
- TGI [48]: 47 µM
- GI50 [49]: 16.4 µM
- TGI [49]: 31 µM
- GI50 [50]: 16 µM
- TGI [50]: 32.2 µM
- GI50 [51]: 20.6 µM
- TGI [51]: 52.4 µM
- GI50 [52]: 19.4 µM
- TGI [52]: 53 µM
- GI50 [53]: 19 µM
- TGI [53]: 37.3 µM
- GI50 [54]: 30.3 µM
- TGI [54]: > 100 µM
- GI50 [55]: 19.4 µM
- TGI [55]: 45.7 µM
- GI50 [56]: 14.4 µM
- TGI [56]: 29.7 µM
- GI50 [57]: 15.4 µM
- TGI [57]: 30 µM
